# System: PC-3 PIP/flu tumor-bearing mice
# Assay: Biodistribution studies in PC-3 PIP/flu tumor-bearing mice
# Settings: for Tumor-to-blood / Tumor-to-kidney / Tumor-to-liver: PC-3 PIP tumor
smiles,measurement,setting,value
"O=C(O)CCC(NC(=O)NC(CCCCNC(=O)C(Cc1ccc2ccccc2c1)NC(=O)C1CCC(CNC(=O)C(CCCCNC(=O)CN2CCN(CC(=O)O)CCN(CC(=O)O)CCN(CC(=O)O)CC2)NC(=O)CCCCCCC(=O)NC(CCCCNC(=O)CCCc2ccc(I)cc2)C(=O)O)CC1)C(=O)O)C(=O)O (stereo not shown) [^177Lu-PSMA-ALB-04, metal not drawn]",Tumor-to-blood,1 h p.i.,0.20 ± 0.02
same,Tumor-to-kidney,1 h p.i.,0.54 ± 0.09
same,Tumor-to-liver,1 h p.i.,0.33 ± 0.06
same,Blood,24 h p.i.,55.3 ± 3.10 % IA/g
same,Bone,24 h p.i.,8.88 ± 0.19 % IA/g
same,Heart,24 h p.i.,22.1 ± 3.70 % IA/g
same,Intestines,24 h p.i.,8.13 ± 1.31 % IA/g
same,Kidneys,24 h p.i.,41.5 ± 1.44 % IA/g
same,Liver,24 h p.i.,17.6 ± 2.04 % IA/g
same,Lung,24 h p.i.,40.1 ± 7.77 % IA/g
same,Muscle,24 h p.i.,5.82 ± 1.62 % IA/g
same,PC-3 PIP Tumor,24 h p.i.,82.8 ± 6.84 % IA/g
same,PC-3 flu Tumor,24 h p.i.,14.0 ± 0.60 % IA/g
same,Salivary glands,24 h p.i.,12.5 ± 0.42 % IA/g
same,Spleen,24 h p.i.,13.6 ± 1.90 % IA/g
same,Stomach,24 h p.i.,6.18 ± 0.95 % IA/g
same,Tumor-to-blood,24 h p.i.,1.50 ± 0.11
same,Tumor-to-kidney,24 h p.i.,2.00 ± 0.11
same,Tumor-to-liver,24 h p.i.,4.76 ± 0.67
same,Blood,48 h p.i.,38.2 ± 1.48 % IA/g
same,Bone,48 h p.i.,6.80 ± 0.67 % IA/g
same,Heart,48 h p.i.,13.6 ± 0.36 % IA/g
same,Intestines,48 h p.i.,7.27 ± 0.82 % IA/g
same,Kidneys,48 h p.i.,38.2 ± 4.10 % IA/g
same,Liver,48 h p.i.,13.1 ± 0.67 % IA/g
same,Lung,48 h p.i.,24.6 ± 2.02 % IA/g
same,Muscle,48 h p.i.,4.62 ± 0.38 % IA/g
same,PC-3 PIP Tumor,48 h p.i.,93.2 ± 12.4 % IA/g
same,PC-3 flu Tumor,48 h p.i.,12.6 ± 0.82 % IA/g
same,Salivary glands,48 h p.i.,10.6 ± 0.42 % IA/g
same,Spleen,48 h p.i.,14.0 ± 1.70 % IA/g
same,Stomach,48 h p.i.,5.04 ± 0.35 % IA/g
same,Tumor-to-blood,48 h p.i.,2.45 ± 0.41
same,Tumor-to-kidney,48 h p.i.,2.47 ± 0.50
same,Tumor-to-liver,48 h p.i.,7.16 ± 1.16
same,Blood,96 h p.i.,11.65 ± 1.22 % IA/g
same,Bone,96 h p.i.,2.54 ± 0.31 % IA/g
same,Heart,96 h p.i.,4.81 ± 0.29 % IA/g
same,Intestines,96 h p.i.,2.36 ± 0.17 % IA/g
same,Kidneys,96 h p.i.,15.3 ± 1.49 % IA/g
same,Liver,96 h p.i.,4.67 ± 0.82 % IA/g
same,Lung,96 h p.i.,9.96 ± 1.44 % IA/g
same,Muscle,96 h p.i.,1.56 ± 0.56 % IA/g
same,PC-3 PIP Tumor,96 h p.i.,61.4 ± 7.68 % IA/g
same,PC-3 flu Tumor,96 h p.i.,5.63 ± 0.37 % IA/g
same,Salivary glands,96 h p.i.,4.08 ± 0.44 % IA/g
same,Spleen,96 h p.i.,6.76 ± 0.59 % IA/g
same,Stomach,96 h p.i.,1.74 ± 0.11 % IA/g
same,Tumor-to-blood,96 h p.i.,5.29 ± 0.74
same,Tumor-to-kidney,96 h p.i.,4.03 ± 0.56
same,Tumor-to-liver,96 h p.i.,13.4 ± 2.88
same,Blood,192 h p.i.,3.75 ± 1.49 % IA/g
same,Bone,192 h p.i.,1.17 ± 0.61 % IA/g
same,Heart,192 h p.i.,1.73 ± 0.70 % IA/g
same,Intestines,192 h p.i.,0.67 ± 0.15 % IA/g
same,Kidneys,192 h p.i.,8.82 ± 3.83 % IA/g
same,Liver,192 h p.i.,2.45 ± 0.81 % IA/g
same,Lung,192 h p.i.,4.10 ± 1.77 % IA/g
same,Muscle,192 h p.i.,0.71 ± 0.54 % IA/g
same,PC-3 PIP Tumor,192 h p.i.,57.6 ± 17.3 % IA/g
same,PC-3 flu Tumor,192 h p.i.,3.31 ± 1.43 % IA/g
same,Salivary glands,192 h p.i.,1.96 ± 0.73 % IA/g
same,Spleen,192 h p.i.,5.22 ± 3.17 % IA/g
same,Stomach,192 h p.i.,0.56 ± 0.19 % IA/g
same,Tumor-to-blood,192 h p.i.,15.8 ± 3.55
same,Tumor-to-kidney,192 h p.i.,6.91 ± 2.24
same,Tumor-to-liver,192 h p.i.,23.9 ± 5.12
